Measured values reported in patent US8063018B2, “Bivalent thrombin binding molecules comprising linkers” (National Research Council of Canada, priority 2004, dated 2011).

Legend:
[1] = target: anti-c-myc antibody 9E10; settings: read-out: Affinity for anti-c-myc antibody 9E10; cited from earlier work
[2] = target: α-thrombin (Homo sapiens, UniProt P00734); assay: Amidolytic assay of CaM-DTI and CaM-DTI2 (S-2238 or S-2366); type: biochemical; parameters: with a certain fixed concentration of α-thrombin (˜0.3 nM); settings: Ca2+ up to 5 mM
Protocol: Kinetics of thrombin-catalyzed hydrolysis of the chromogenic substrates S-2238 or S-2366 (Chromogenix) was followed by absorbance at 405 nm on a SpectraMax plate reader thermostated at 37° C. The concentration of the substrate was 400 μM. Inhibition assays were performed in the clotting buffer with a certain fixed concentration of α-thrombin (˜0.3 nM) such that linear progress curves were observed within at least 15 min in the absence of the inhibition. The total volume of the reaction mixture was 200 μl. […] Kinetics data from initial rate experiments were used to construct Lineweaver-Burke plot; i.e. the relationship of (substrate concentration)^−1 versus (initial velocity)^−1 which were analysed by linear regression with MicroCal Origin 6.0 program (MicroCal, Md.). The Ki values of the inhibitors were determined using the equation Ki=[I]/{(SLo/SL1)−1}, where [I] is the inhibitor concentration, SLo is the slope of the reaction in the absence of inhibitors, and SL1 is the slope of the reaction in the presence of the inhibitor.
Kinetics of thrombin-catalyzed hydrolysis of the chromogenic substrate S-2366 (Chromogenix) was followed by absorbance at 405 nm on a SpectraMax plate reader at 25° C. The concentration of the substrate S-2366 was 50 μM. Inhibition assays were performed in the clotting buffer with a certain fixed concentration of α-thrombin (˜0.6 nM). […]

| Effect of Ca2+ on inhibition of the thrombin active site [2] | Substance | Kd [1] [nM] |
| --- | --- | --- |
| – | EQKLISEEDL [c-myc sequence] | ~500 |
| not affected | Ile-Arg-Phe-Thr-Asp-Gly-Glu-Gly-(CamCKK)-Asp-Phe-Glu-Glu-Ile-Pro-Glu-Glu-Tyr-Leu-Gln [CaM-DTI2] | – |
